Assay [1] has as its target T1, α5β3γ2 GABAA/BzR (Homo sapiens, UniProt P18507+P31644). In words: Competition binding to HEK cell membranes, α5β3γ2. The arrangement: expressed in transfected cells.
The target in assay [2] is T2, α6β3γ2 GABAA/BzR (Homo sapiens, UniProt P18507+Q16445). Briefly: Competition binding to HEK cell membranes, α6β3γ2. The arrangement: expressed in transfected cells.
The target of assay [3] is T3, α4β3γ2 GABAA/BzR (Homo sapiens, UniProt P18507+P48169).
T3 construct: expressed in transfected cells; host or cells: LTK cells (given for XLi-093 only)
The note with it: read-out: Affinity Ki α4, cited from earlier work.

In assay [4] the target is T1, α5β3γ2 GABAA/BzR. The arrangement: expressed in transfected cells; host or cells: LTK cells (given for XLi-093 only). The note with it: read-out: Affinity Ki α5, cited from earlier work.
The target in assay [5] is T4, α3β3γ2 GABAA/BzR (Homo sapiens, UniProt P18507+P34903). Briefly: Competition binding to HEK cell membranes, α3β3γ2. The arrangement: expressed in transfected cells.
The target of assay [6] is T2, α6β3γ2 GABAA/BzR. The arrangement: expressed in transfected cells; host or cells: LTK cells (given for XLi-093 only). The note with it: read-out: Affinity Ki α6, cited from earlier work.
Assay [7] addresses T5, α2β3γ2 GABAA/BzR (Homo sapiens, UniProt P18507+P47869). The arrangement: expressed in transfected cells; host or cells: LTK cells (given for XLi-093 only). The note with it: read-out: Affinity Ki α2, cited from earlier work.
Assay [8] deals with T4, α3β3γ2 GABAA/BzR. The arrangement: expressed in transfected cells; host or cells: LTK cells (given for XLi-093 only). As to conditions: read-out: Affinity Ki α3, cited from earlier work.
Assay [9] addresses T5, α2β3γ2 GABAA/BzR. In words: Competition binding to HEK cell membranes, α2β3γ2. The arrangement: expressed in transfected cells.
In assay [10] the target is T6, α1β3γ2 GABAA/BzR (Homo sapiens, UniProt P14867+P18507). The arrangement: expressed in transfected cells; host or cells: LTK cells (given for XLi-093 only). As to conditions: read-out: Affinity Ki α1, cited from earlier work.
Assay [11] deals with T6, α1β3γ2 GABAA/BzR. In words: Competition binding to HEK cell membranes, α1β3γ2. Further details: expressed in transfected cells.
Assay [12] deals with T3, α4β3γ2 GABAA/BzR. Briefly: biochemical. Format: binding.
In assay [13] the target is T7, α3β2γ2 GABAA receptor (Homo sapiens, UniProt P18507+P34903).
T7 construct: expressed in transfected cells; host or cells: HEK cells
Briefly: Radioligand binding (McKernan and Atack), α3β2γ2. The note with it: Table 3; αxβ2γ2; means of two determinations; read-out: Binding affinity α3. On the procedure:
(§1) Transfected HEK cells (beta2 gamma2 and desired alpha subtype) were harvested into phosphate-buffered saline, centrifuged at 3,000 g, and stored at −70°C until required. On the day of the assay, pellets were thawed and resuspended in sufficient volume of 50 mM Tris/acetate (pH 7.4 at 4°C) to give a total binding of approximately 1500–2000 dpm. […] Total assay volume was 0.5 mL and assays were carried out in 96-well plates and incubation time started by the addition of 0.1 mL of resuspended cell membranes. Following incubation for 1 hour at 4°C, assays were terminated by filtration through GF/B filters, washed with 10 mL ice cold buffer, dried, and then counted using a liquid scintillation counter. […] We have previously reported the synthesis of the following.

The target in assay [14] is T8, α1β2γ2 GABAA receptor (Homo sapiens, UniProt P14867+P18507).
T8 construct: expressed in transfected cells; host or cells: HEK cells
Briefly: Radioligand binding (McKernan and Atack), α1β2γ2. As to conditions: Table 3; αxβ2γ2; means of two determinations; read-out: Binding affinity α1. The procedure:
as §1

Assay [15] concerns the target T9, α5β2γ2 GABAA receptor (Homo sapiens, UniProt P18507+P31644).
T9 construct: expressed in transfected cells; host or cells: HEK cells
In words: Radioligand binding (McKernan and Atack), α5β2γ2. As to conditions: Table 3; αxβ2γ2; means of two determinations; read-out: Binding affinity α5. On the procedure:
as §1

The target of assay [16] is T10, α2β2γ2 GABAA receptor (Homo sapiens, UniProt P18507+P47869).
T10 construct: expressed in transfected cells; host or cells: HEK cells
In words: Radioligand binding (McKernan and Atack), α2β2γ2. As to conditions: Table 3; αxβ2γ2; means of two determinations; read-out: Binding affinity α2. The procedure:
as §1

Assay [17] has as its target T11, α6β2γ2 GABAA receptor (Homo sapiens, UniProt P18507+Q16445).
T11 construct: expressed in transfected cells; host or cells: HEK cells
Briefly: Radioligand binding (McKernan and Atack), α6β2γ2. The note with it: Table 3; αxβ2γ2; means of two determinations; read-out: Binding affinity α6. On the procedure: as §1

Assay [18] concerns the target T12, α4β2γ2 GABAA receptor (Homo sapiens, UniProt P18507+P48169).
T12 construct: expressed in transfected cells; host or cells: HEK cells
In words: Radioligand binding (McKernan and Atack), α4β2γ2. As to conditions: Table 3; αxβ2γ2; means of two determinations; read-out: Binding affinity α4. On the procedure: as §1

The subject of assay [19] is dopamine neurons in the VTA. As to conditions: rat, in vivo; cited from earlier work.
In assay [20] the test system is human airway smooth muscle cells. As to conditions: 200 μM; cited from earlier work.
The subject of assay [21] is Bz BS of GABA(A) receptors. As to conditions: cited from earlier work.
For assay [22], the system named is alcohol preferring and HAD rats. As to conditions: cited from earlier work.
The target in assay [23] is α5β3γ2 BzR/GABA(A). The note with it: Figure 1; LTK cells; read-out: Binding affinity α5; cited from earlier work.
Assay [24] has as its target α6β3γ2 BzR/GABA(A). As to conditions: Figure 1; LTK cells; read-out: Binding affinity α6; cited from earlier work.
Assay [25] addresses α3β3γ2 BzR/GABA(A). As to conditions: Figure 1; LTK cells; read-out: Binding affinity α3; cited from earlier work.
The target of assay [26] is α4β3γ2 BzR/GABA(A). As to conditions: Figure 1; LTK cells; read-out: Binding affinity α4; cited from earlier work.
The target in assay [27] is α2β3γ2 BzR/GABA(A). As to conditions: Figure 1; LTK cells; read-out: Binding affinity α2; cited from earlier work.

Structures are written as SMILES. Where “and” joins values, the source holds several entries; their conditions need not be identical. Identical values can stand only once. Like-named read-outs stand apart in the source and are kept apart here.

Consider `CCOC(=O)c1cc2c(cn1)[nH]c1ccc(C#C[Si](C)(C)C)cc12` [WY-B-99-1], for which the Ki in [1] (Ki α5) was 47 nM; in assay [1] (read-out: Ki α5), 47 nM; in assay [2] (Ki α6), 2000 nM; in assay [3] (Figure 33, αxβ3γ2), 2000 nM; in assay [4] (Figure 33, αxβ3γ2), 47 nM; in assay [5] (Ki α3), 5.58 nM. Moreover, the Ki in assay [5] (read-out: Ki α3) is 5.58 nM; in assay [6] (Figure 33, αxβ3γ2), 2000 nM; in [7] (Figure 33, αxβ3γ2), 4.5 nM; in [8] (Figure 33, αxβ3γ2), 5.58 nM; in assay [9] (Ki α2), 4.5 nM; in assay [9] (read-out: Ki α2) it was 4.5 nM. Also, the Ki in [10] (Figure 33, αxβ3γ2) was 4.4 nM; in [11] (Ki α1), 4.4 nM; in [11] (read-out: Ki α1), 4.4 nM; in assay [12] it was 2000 nM.
As to `O=C(OCC(F)(F)F)c1cc2c(cn1)[nH]c1ccc(-c3cccs3)cc12` [WY-B-27-2], the Ki was 449 nM in assay [1] (read-out: Ki α5); 2000 nM in assay [2] (read-out: Ki α6); 2000 nM in [3]; 449 nM in assay [4]; 72 nM in assay [5] (read-out: Ki α3); 2000 nM in assay [6]. For the same compound, the Ki in assay [7] was 13 nM; in [8], 72 nM; in assay [9] (read-out: Ki α2), 111 nM; in assay [10], 9.2 nM; in assay [11] (read-out: Ki α1) it was 9.19 nM; in assay [12] (read-out: Ki α4), 2000 nM.
As to `C#Cc1ccc2c(c1)C(c1ccccc1)=N[C@@H](C)c1c(C(=O)OCC)ncn1-2` [SH-053-S-CH3, (16)], the Ki was 1250 nM in [13]; 1670 nM in [14]; 206 nM in [15]; 1260 nM in assay [16]; more than 5000 nM in [17]; more than 5000 nM in assay [18].
Consider `CN1CCc2cccc3c2[C@H]1Cc1ccc(O)c(O)c1-3` [apomorphine, reference compound], for which, in assay [19], the “number of active dopamine neurons, MAM rats withdrawn from repeated HAL” value is reported as “no effect” and the “number of spontaneously active dopamine neurons, SAL rats withdrawn from repeated HAL” value is recorded as “increased”.
Take `O=C(OCC(F)(F)F)c1cc2c(cn1)[nH]c1ccc(I)cc12` [WY-B-20]: the Ki in assay [1] (Ki α5) is 122 nM; in assay [2] (Ki α6), 3000 nM; in assay [3] (Figure 33, αxβ3γ2), 2000 nM; in assay [4] (Figure 33, αxβ3γ2) it was 122 nM; in assay [5] (Ki α3), 47 nM; in assay [6] (Figure 33, αxβ3γ2), 3000 nM. Also, the Ki in assay [7] (Figure 33, αxβ3γ2) is 39 nM; in assay [8] (Figure 33, αxβ3γ2) it was 47 nM; in [9] (Ki α2), 39 nM; in [10] (Figure 33, αxβ3γ2), 12 nM; in [11] (Ki α1) it was 12 nM; in assay [12], 2000 nM.
For `COc1ccc(-c2ccc(=N)n(CCCC(=O)O)n2)cc1` [gabazine, reference compound], the “effect on the attenuation by SH-053-2′F-R-CH3 of the calcium increase” value in [20] was “significantly blocked”.
On to `CC(C)(C)OC(=O)c1cc2c(cn1)[nH]c1ccccc12` [BCCt], for which the Ki in assay [1] (Ki α5) was 69.3 nM; in [1] (read-out: Ki α5) it was 111 nM; in assay [2] (Ki α6), 5000 nM; in assay [3] (Figure 33, αxβ3γ2) it was 1000 nM; in assay [5] (Ki α3), 0.035 nM; in assay [6] (Figure 33, αxβ3γ2), more than 5000 nM. Also, the Ki in [9] (Ki α2) was found to be 0.0419 nM; in assay [11] (Ki α1) it was 0.03 nM. In assay [21] (Supplement Table 1), the modulation result is “antagonist”. For the same compound, in assay [21], the “pharmacological properties compared with classical benzodiazepine receptor antagonists” value is recorded as “near GABA neutral antagonists”. In addition, the “rate at which rats self-administrated alcohol” value in [22] (alcohol preferring and HAD rats) is reported as “reduce the rate”. In assay [22], the sucrose self-administration entry was “little or no effect”.
With `CC(C)(C)OC(=O)c1cc2c(cn1)[nH]c1ccc(C#C[Si](C)(C)C)cc12` [WY-B-14 (WYS7)], the Ki in assay [2] (Ki α6) was 1000 nM and 5000 nM; in assay [3] (Figure 33, αxβ3γ2) it was 2000 nM; in assay [4] (Figure 33, αxβ3γ2), 108 nM; in assay [5] (Ki α3), 36 nM and 245 nM; in [6] (Figure 33, αxβ3γ2), 1000 nM; in [7] (Figure 33, αxβ3γ2) it was 30 nM. In addition, the Ki in assay [8] (Figure 33, αxβ3γ2) was 36 nM; in assay [9] (Ki α2) it was 30 nM and 165 nM; in [10] (Figure 33, αxβ3γ2) it was 6.8 nM; in [11] (Ki α1), 6.84 nM and 8.5 nM; in assay [12], 2000 nM.
On to `NC1=N[C@H](O)[C@H]2[C@H]3O[C@]4(O)O[C@@H]([C@@H](O)[C@@]2(N1)[C@@H]4O)[C@]3(O)CO` [TTX, Tetrodotoxin, reference compound], for which the “cells/track after infusion in the ventral HPC of haloperidol-treated rats” value in assay [19] was “reversed the haloperidol-induced reduction in cells/track in SAL, but not MAM”.
`C#Cc1ccc2c(c1)C(=O)N(C)Cc1c(C(=O)OCC)ncn1-2` [RY-80 (3)]: the Ki in assay [23] is 0.49 nM; in [24], 28.8 nM; in assay [25], 25.8 nM; in assay [26], 5.3 nM; in assay [27], 21.4 nM.
Consider `O=C(CCCN1CCC(O)(c2ccc(Cl)cc2)CC1)c1ccc(F)cc1` [haloperidol, reference compound], for which the “number of spontaneously active dopamine neurons after repeated treatment, SAL and MAM rats” value in [19] is “reduction”.
Turning to `C#Cc1ccc2c(c1)C(c1ccccc1)=N[C@H](C)c1c(C(=O)OCC)ncn1-2` [SH-053-R-CH3, (15)], the Ki was 1180 nM in assay [13]; 2030 nM in assay [14]; 949 nM in assay [15]; 2380 nM in assay [16]; more than 5000 nM in assay [17]; more than 5000 nM in [18].

These data come from PMC4657098, “A Review of the Updated Pharmacophore for the Alpha 5 GABA(A) Benzodiazepine Receptor Model” (International Journal of Medicinal Chemistry, 2015).
